Among the data in ChEMBL document CHEMBL1149760, “Chemoenzymatic synthesis and antimicrobial activity evaluation of monogalactosyl diglycerides” (2008) are MIC values, retold here.

Holding throughout (type): functional
Test [1] has as its system Mycobacterium tuberculosis. The experiment in a line: Antimicrobial activity against Mycobacterium tuberculosis H37Rv by agar dilution method. Background: Agar dilution tests growth on a series of plates holding different concentrations.
The subject of test [2] is Staphylococcus aureus. The experiment in a line: Antimicrobial activity against Staphylococcus aureus SA85 by agar dilution method.
The next test deals with Enterococcus faecalis. The experiment in a line: Antimicrobial activity against Enterococcus faecalis ATCC 29212 by agar dilution method.
The subject of another test is Candida albicans. Description: Antifungal activity against Candida albicans by agar dilution method.
Test [3] relates to Mycobacterium tuberculosis. Description: Antimicrobial activity against Mycobacterium tuberculosis H160 by agar dilution method.
Test [4] concerns Staphylococcus aureus. Description: Antimicrobial activity against Staphylococcus aureus SA87 by agar dilution method.
Test [5] deals with Staphylococcus aureus. Description: Antimicrobial activity against Staphylococcus aureus SA52 by agar dilution method.
A further test deals with Pseudomonas aeruginosa. The experiment in a line: Antimicrobial activity against Pseudomonas aeruginosa ATCC 27753 by agar dilution method.
A further test relates to Bacillus subtilis. The experiment in a line: Antimicrobial activity against Bacillus subtilis ATCC 6633 by agar dilution method.
Test [6] has as its system Staphylococcus aureus. Description: Antimicrobial activity against Staphylococcus aureus ATCC 25923 by agar dilution method.
For test [7], the system named is Staphylococcus aureus. Description: Antimicrobial activity against Staphylococcus aureus ATCC 105487 by agar dilution method.
The next test concerns Kluyveromyces marxianus. Description: Antifungal activity against Candida pseudotropicalis by agar dilution method.
In test [8] the test system is Mycobacterium tuberculosis. Description: Antimicrobial activity against Mycobacterium tuberculosis H190 by agar dilution method.
For the next test, the system named is Escherichia coli. Description: Antimicrobial activity against Escherichia coli ATCC 25922 by agar dilution method.

Turning to `CC/C=C/C/C=C/C/C=C/CCCCCCCC(=O)OC(COC(=O)CCCCCCCCC)CO[C@@H]1O[C@H](CO)[C@H](O)[C@H](O)[C@H]1O` (mixture of isomers), the minimum inhibitory concentration (MIC) in [1] was greater than 128 µg/mL; in the test with Staphylococcus aureus [2], 64 µg/mL; with Enterococcus faecalis, greater than 128 µg/mL; in the test with Candida albicans it was greater than 128 µg/mL; in test [3], greater than 128 µg/mL; with Staphylococcus aureus [4], 32 µg/mL. Also, the MIC against Staphylococcus aureus [5], in the test on Pseudomonas aeruginosa, in the test on Bacillus subtilis, against Staphylococcus aureus [6], against Staphylococcus aureus [7] and against Kluyveromyces marxianus was greater than 128 µg/mL each time. For the same compound, the minimum inhibitory concentration (MIC) (in test [8]; against Escherichia coli) was greater than 128 µg/mL each time.
As for `CCCCCCCC/C=C/CCCCCCCC(=O)OCC(CO[C@@H]1O[C@H](CO)[C@H](O)[C@H](O)[C@H]1O)OC(=O)CCCCCCC/C=C/CCCCCCCC` (mixture of isomers), the minimum inhibitory concentration (MIC) (in [1]; in the test on Staphylococcus aureus [2]; against Enterococcus faecalis; against Candida albicans; in test [3]; in the test on Staphylococcus aureus [4]) was greater than 128 µg/mL in each case. The MIC with Staphylococcus aureus [5], in the test on Pseudomonas aeruginosa, with Bacillus subtilis, against Staphylococcus aureus [6], in the test on Staphylococcus aureus [7] and with Kluyveromyces marxianus was greater than 128 µg/mL in each case. Also, the minimal inhibitory concentration (MIC) (in test [8]; in the test with Escherichia coli) was greater than 128 µg/mL throughout.
Turning to `CC/C=C/C/C=C/C/C=C/CCCCCCCC(=O)OCC(CO[C@@H]1O[C@H](CO)[C@H](O)[C@H](O)[C@H]1O)OC(=O)CCCCCCC/C=C/C/C=C/C/C=C/CC` (mixture of isomers), the minimum inhibitory concentration (MIC) (in [1]; against Staphylococcus aureus [2]; in the test with Enterococcus faecalis; with Candida albicans; in test [3]; in the test on Staphylococcus aureus [4]) was greater than 128 µg/mL in each case. The MIC was greater than 128 µg/mL in the test on Staphylococcus aureus [5]; greater than 128 µg/mL in the test with Pseudomonas aeruginosa; greater than 128 µg/mL with Bacillus subtilis; 128 µg/mL against Staphylococcus aureus [6]; greater than 128 µg/mL against Staphylococcus aureus [7]; greater than 128 µg/mL in the test on Kluyveromyces marxianus. In addition, the MIC (in test [8]; in the test with Escherichia coli) was greater than 128 µg/mL in each case.
Take `CCCCCCCC/C=C/CCCCCCCC(=O)OC(COC(=O)CCCCCCC)CO[C@@H]1O[C@H](CO)[C@H](O)[C@H](O)[C@H]1O` (mixture of isomers): the minimal inhibitory concentration (MIC) in test [1] was 128 µg/mL; against Staphylococcus aureus [2] it was greater than 128 µg/mL; with Enterococcus faecalis, greater than 128 µg/mL; against Candida albicans, greater than 128 µg/mL; in test [3], 64 µg/mL; in the test on Staphylococcus aureus [4], 64 µg/mL. The minimum inhibitory concentration (MIC) is greater than 128 µg/mL in the test on Staphylococcus aureus [5]; greater than 128 µg/mL with Pseudomonas aeruginosa; 128 µg/mL against Bacillus subtilis; greater than 128 µg/mL in the test on Staphylococcus aureus [6]; greater than 128 µg/mL in the test with Staphylococcus aureus [7]; greater than 128 µg/mL against Kluyveromyces marxianus. Besides, the figures for the minimal inhibitory concentration (MIC) (in test [8]; with Escherichia coli) were 64 µg/mL and greater than 128 µg/mL, respectively.
As to `CC/C=C/C/C=C/C/C=C/CCCCCCCC(=O)OC(COC(=O)CCCCCCC)CO[C@@H]1O[C@H](CO)[C@H](O)[C@H](O)[C@H]1O` (mixture of isomers), the minimal inhibitory concentration (MIC) in test [1] was 128 µg/mL; with Staphylococcus aureus [2] it was greater than 128 µg/mL; against Enterococcus faecalis, greater than 128 µg/mL; in the test on Candida albicans, greater than 128 µg/mL; in test [3], 128 µg/mL; in the test on Staphylococcus aureus [4] it was 64 µg/mL. Moreover, the minimal inhibitory concentration (MIC) in the test with Staphylococcus aureus [5] is greater than 128 µg/mL; against Pseudomonas aeruginosa it was greater than 128 µg/mL; in the test on Bacillus subtilis, 128 µg/mL; against Staphylococcus aureus [6], greater than 128 µg/mL; against Staphylococcus aureus [7], greater than 128 µg/mL; in the test with Kluyveromyces marxianus, greater than 128 µg/mL. The figures for the minimum inhibitory concentration (MIC) (in test [8]; with Escherichia coli) were 128 µg/mL and greater than 128 µg/mL, respectively.
As for `CCCCC/C=C/C/C=C/CCCCCCCC(=O)OC(COC(=O)CCCCCCC)CO[C@@H]1O[C@H](CO)[C@H](O)[C@H](O)[C@H]1O` (mixture of isomers), the MIC in [1] is 64 µg/mL; with Staphylococcus aureus [2], greater than 128 µg/mL; against Enterococcus faecalis it was greater than 128 µg/mL; against Candida albicans, greater than 128 µg/mL; in test [3] it was 64 µg/mL; against Staphylococcus aureus [4] it was 128 µg/mL. The minimal inhibitory concentration (MIC) with Staphylococcus aureus [5] was greater than 128 µg/mL; in the test with Pseudomonas aeruginosa, greater than 128 µg/mL; in the test with Bacillus subtilis, 128 µg/mL; in the test with Staphylococcus aureus [6], greater than 128 µg/mL; with Staphylococcus aureus [7] it was greater than 128 µg/mL; in the test on Kluyveromyces marxianus, greater than 128 µg/mL. Also, the MIC is 128 µg/mL in test [8] and greater than 128 µg/mL in the test with Escherichia coli.
As for `CCCCC/C=C/C/C=C/CCCCCCCC(=O)OC(COC(=O)CCCCCCCCC)CO[C@@H]1O[C@H](CO)[C@H](O)[C@H](O)[C@H]1O` (mixture of isomers), the MIC in [1] was greater than 128 µg/mL; in the test on Staphylococcus aureus [2], 64 µg/mL; in the test with Enterococcus faecalis, 128 µg/mL; in the test on Candida albicans, greater than 128 µg/mL; in test [3], greater than 128 µg/mL; against Staphylococcus aureus [4], 64 µg/mL. Besides, the minimal inhibitory concentration (MIC) with Staphylococcus aureus [5] is greater than 128 µg/mL; in the test on Pseudomonas aeruginosa, greater than 128 µg/mL; in the test on Bacillus subtilis, 128 µg/mL; against Staphylococcus aureus [6], greater than 128 µg/mL; in the test on Staphylococcus aureus [7] it was 64 µg/mL; with Kluyveromyces marxianus it was greater than 128 µg/mL. The MIC (in test [8]; in the test on Escherichia coli) was greater than 128 µg/mL throughout.
As for `CCCCC/C=C/C/C=C/CCCCCCCC(=O)OCC(CO[C@@H]1O[C@H](CO)[C@H](O)[C@H](O)[C@H]1O)OC(=O)CCCCCCC/C=C/C/C=C/CCCCC` (mixture of isomers), the minimal inhibitory concentration (MIC) is 128 µg/mL in test [1]; greater than 128 µg/mL in the test with Staphylococcus aureus [2]; greater than 128 µg/mL in the test with Enterococcus faecalis; greater than 128 µg/mL in the test on Candida albicans; 128 µg/mL in [3]; 128 µg/mL against Staphylococcus aureus [4]. Moreover, the MIC against Staphylococcus aureus [5] was greater than 128 µg/mL; with Pseudomonas aeruginosa it was greater than 128 µg/mL; with Bacillus subtilis it was 128 µg/mL; in the test with Staphylococcus aureus [6], greater than 128 µg/mL; against Staphylococcus aureus [7] it was greater than 128 µg/mL; in the test on Kluyveromyces marxianus it was greater than 128 µg/mL. Besides, the values for the MIC (in [8]; in the test on Escherichia coli) were 128 µg/mL and greater than 128 µg/mL, respectively.
As for `CCCCCCCC/C=C/CCCCCCCC(=O)OC(COC(=O)CCCCCCCCC)CO[C@@H]1O[C@H](CO)[C@H](O)[C@H](O)[C@H]1O` (mixture of isomers), the minimal inhibitory concentration (MIC) in [1] was greater than 128 µg/mL; in the test on Staphylococcus aureus [2], 128 µg/mL; in the test on Enterococcus faecalis, greater than 128 µg/mL; in the test on Candida albicans, greater than 128 µg/mL; in [3], greater than 128 µg/mL; in the test with Staphylococcus aureus [4], greater than 128 µg/mL. For the same compound, the MIC in the test with Staphylococcus aureus [5] is greater than 128 µg/mL; against Pseudomonas aeruginosa it was greater than 128 µg/mL; with Bacillus subtilis it was 32 µg/mL; with Staphylococcus aureus [6], 128 µg/mL; in the test on Staphylococcus aureus [7] it was greater than 128 µg/mL; in the test with Kluyveromyces marxianus it was greater than 128 µg/mL. In addition, the minimal inhibitory concentration (MIC) (in test [8]; against Escherichia coli) was greater than 128 µg/mL each time.

A word on the MIC: it is the least concentration at which growth counts as inhibited.
